Test results taken from US20080255244A1, “CaM Kinase II Inhibitor Improves Retinoic Acid Therapy and Inhibits the Proliferation of Myeloid Leukemia Cells” (Fred Hutchinson Cancer Research Center, priority 2007, published 2008).

How the values were obtained:
[1] = tested on: C/EBPε RARE; test: ChIP at the C/EBPε promoter RARE in HL60 cells; format: cell-based, human; details: ATRA 1 uM
Protocol: FIG. 6. Retinoic acid induces changes in the association of CaMKIIγ with the C/EBPε promoter RARE. […] (B) The human C/EBPε 5′ region indicating the location of the ChIP PCR primers. (C) ChIP assays. HL60 cell chromatin from cells treated with ATRA (1 uM) for the indicated time was immunoprecipitated with the indicated antibodies, the DNA isolated and subjected to PCR utilizing the indicated C/EBPε promoter primer pairs.
ChIP. HL60 cells incubated for various periods of time after ATRA (1 μM) treatment were harvested and crosslinked using 1% formaldehyde for 15 minutes at 37° and incubated another 15 minutes at room temperature with 125 mM glycine. Cells then were rinsed and washed three times with cold PBS. The cell pellets were resuspended in 0.2-2 ml of SDS lysis buffer (1% SDS, 10 mM EDTA, […] Tris-HCL, pH 8.1) with protease inhibitors(1 μg/ml leupeptin, […] aprotinin, 1 mM PMSF, 1 μg/ml pepstatin A, 10 μM antipain, 10 μM bestatin, 1 mM NaF, and 1× phosphatase inhibitor cocktail I/II) and sonicated three times at 20 s each to reduce DNA length to 200-800 bp. Supernatants were collected by centrifugation for 10 minutes at 13,200 rpm at 4° and diluted in 10 fold dilution buffer (0.01% SDS, 1.1% Triton X-100, 1.2 mm EDTA, 16.7 mM Tris-HCl, pH 8.1, 167 mM NaCl) with the above protease inhibitors. […]

[2] = tested on: Kasumi cells; test: Differentiation of Kasumi cells; format: cell-based, human; details: preliminary studies; not shown
Description: (§1) Pharmacological CaMK inhibitors trigger myeloid leukemia cell differentiation. Particularly compelling evidence for the physiological importance of the CaMKII—mediated regulation of RAR activity is our experimental observation that KN-62, a pharmacological inhibitor of the CaMKs, enhances both RAR transcriptional activity (FIG. 1B) and the differentiation of certain myeloid leukemia cell lines (FIG. 7). Acute myelogenous leukemia (AML) is a heterogenous disease, and successful therapy with RA has been generally confined to those leukemias harboring RARα chromosome translocations.

[3] = tested on: NB4 subclones that are unresponsive to ATRA; test: Differentiation of ATRA-unresponsive NB4 subclones; format: cell-based, human
Description: as §1

[4] = tested on: MPRO cell line; test: Granulocytic differentiation of MPRO cell line; format: cell-based; details: single agent; not shown
Description: Thus the CaMK inhibitor KN-62 not only enhances RAR transcriptional activity but either as a single agent or in combination with relatively low doses of RA can induce/enhance the differentiation of different myeloid leukemia cell lines.

[5] = tested on: K562 cells; test: K562 proliferation in liquid suspension culture (cell counts); format: cell-based, human
Protocol: (A) K562 cells were seeded in liquid suspension culture at 5×10^4 cells/ml in the presence or absence of the indicated concentration of compounds, and cell counts were obtained at the indicated time.
Cell lines. All leukemia cell lines are cultured at 37° in RPMI supplemented with 5% heat-inactivated fetal calf serum.

[6] = tested on: Stat3 transcriptional activity in K562 cells; test: Stat3 response element luciferase reporter in K562 cells; format: cell-based, human; details: 48 hours of culture
Protocol: FIG. 13. Stat3 is directly phosphorylated and activated by CaMKIIγ at Ser727. (A, i). Cell lysates from the indicated human leukemia cell lines were subjected to Western blots utilizing the indicated Stat3 antibodies. ii). Cell lysates from the same primary AML samples depicted in FIG. 1B were subjected to Western blots utilizing the indicated Stat3 antibodies. B). The IL-3 dependent TonB210.1 cells were deprived of IL-3 for 24 hours. The cells were then treated with the indicated compounds immediately prior to the addition of doxycycline. After an additional 24 hours cell lysates were harvested and subjected to Western blots with the indicated Stat3 antibodies. C). K562 cells were electroporated with a luciferase reporter driven by a Stat3 response element. The indicated concentrations of KN93 and the Stat 3 inhibitor, cucurbitacin I, were added and relative luciferase activity determined on cell lysates following 48 hours of culture. D, i) K562 cell lysates were immunoprecipitated with control IgG or a Stat3 antibody. […]
Transient transfections and luciferase assays. […] Stat3 transcriptional activity was determined in K562 cells transfected with the pSIE-tk-LUC luciferase reporter which harbors a Stat3 binding site ([…]). […]

In the case of `CC1=C(/C=C/C(C)=C/C=C/C(C)=C/C(=O)O)C(C)(C)CCC1` [ATRA, All-trans retinoic acid], the “association of corepressors N-CoR and SMRT with the C/EBPε RARE” value [1] is reported as “rapid displacement” and the “association of CaMKIIγ with the C/EBPε RARE” value ([1]; observed as early as 1-2 hours) is reported as “dissociation”.

In the case of `CN([C@@H](Cc1ccc(OS(=O)(=O)c2cccc3cnccc23)cc1)C(=O)N1CCN(c2ccccc2)CC1)S(=O)(=O)c1cccc2cnccc12` [KN-62], the “differentiation of Kasumi” value [2] is reported as “does not induce”, the “KN62-mediated differentiation of ATRA-unresponsive NB4 subclones” value [3] is reported as “do not observe any” and the “granulocytic differentiation of MPRO” value [4] is reported as “enhanced”.

In the case of `COc1ccc(S(=O)(=O)N(CCO)c2ccccc2CN(C)C/C=C/c2ccc(Cl)cc2)cc1` [KN-93], the K562 viability [5] is reported as “did not affect”, the K562 cell proliferation ([5]; seeded at 5×10^4 cells/ml, cell counts) is reported as “inhibited the proliferation of K562 cells in a dose dependent manner” and the “Stat3 responsive reporter activity” value [6] is reported as “inhibited”.
